Patent publication US6399570B1, “Antimicrobial/endotoxin neutralizing polypeptide” (priority 1999, dated 2002)

Test system: RAW 264.7 cells
Experiment: Endotoxin induced TNF-α secretion by RAW 264.7 cells
Assay type: cell-based, murine
Experimental: Suppression of endotoxin-induced TNF-α secretion by a macrophage cell line RAW 264.7 was also measured (Kelly et al., Infect. Immun. 59: 4491-6 (1991)). RAW 264.7 cells secret TNF-α upon exposure to endotoxin (M. R. Ruff and G. E. Gifford, Lymphokines 2: 235-272 (1981)). […] Similar to the results of the LAL assay, the potency of LF-33 varied depending on the type of endotoxin. The LF-33 concentration needed to suppress 50% TNF-α secretion induced by endotoxin (10 ng/ml) was approximately 0.01 μM for E. coli LPS and lipid A, 0.1 μM for LPS from P. aeruginosa, and 0.5 μM for LPS from S. abortus equi and N. meningitidis.
Endotoxin induced TNF-α secretion by RAW 264.7 cells. The murine macrophage cell line RAW 264.7 was obtained from the American Type Culture Collection (ATCC, Rockville, Md.) and maintained as described previously (Jeremy, B., Immunol. Today. 16: 417-419 (1995)). The concentration of endotoxin in all buffers and media was controlled to below 0.1 EU/ml. The following protocol was essentially described before and used here with minor modifications (Kelly et al., Infect. Immun. 59: 4491-6 (1991)). Each well of a 96-well tissue culture plate was seeded with 150 μl RAW 264.7 cells at 10^6 cells per ml DMEM (Life Technologies, Gaithersburg, Md.) supplemented with 10% heat-treated fetal bovine serum (Life Technologies), 25 mM HEPES (N-2-hydroxyethylpiperazine-N′-2-ethanesulfonic acid; pH 7.3), penicillin (60 U/ml) and streptomycin (60 μg/ml). After overnight incubation at 37° C. in a 6% CO2 incubator, the medium was aspirated and cells washed with 3-changes of endotoxin-free Hank's balanced salt solution (HBSS, Life Technologies) supplemented with 25 mM HEPES (pH 7.3). Control endotoxin (10 ng/ml) and test materials were prepared in HBSS-HEPES. After incubation in a 37° C. water bath for 1 h, 0.2 ml of these solutions was added in triplicate to each well and incubated at 37° C. for 6 h. The supernatants were then collected and stored at −70° C. before the measurement of […] activity. Controls included HBSS-HEPES and test materials in the absence of endotoxin. TNF-α activity of the medium and test materials was below […]. The human serum used in some experiments was a pool from normal donors.
Determination of TNF activity. TNF-α activity in the culture supernatant was determined based on its cytotoxicity for the mouse fibrosarcoma cell line WEHI 164 cells (ATCC). […] The antibody at 1:100 dilution completely eliminated the cytotoxicity in the culture supernatant of the RAW 264.7 cell stimulated by endotoxin and in the mouse sera collected 1 h after intraperitoneal injection of endotoxin.
Briefly, the 96-well tissue culture plates were seeded with 100 μl WEHI164 cells (5×10^4 cells) in RPMI-1640 medium (Life Technologies) containing 10% heat-treated fetal bovine serum, 25 mM HEPES (pH 7.3), penicillin (60 U/ml), streptomycin (60 μg/ml), and actinomycin D (4 μg/ml). After a 2-h incubation at 37° C. in a 6% CO2 incubator, 10 μl twofold serially diluted samples (culture supernatants) or standards (murine recombinant TNF-α, Genzyme) was added to each well, and incubated for 20 h. Cell viability was then determined by the addition of 10 μl MTT (Thiazolyl blue, Sigma) stock solution (5 mg/ml in saline) to each well, and the incubation was allowed to continue for 6 h. 180 μl of acid-isopropanol (containing 40 mM HCl) was added to dissolve the generated dark blue crystals. The plate was read at 570 nm with a reference of 630 nm in a microplate reader. The amount of TNF-α that led to 50% killing of the seeded cells was defined as one unit, equivalent to approximately 15 pg of recombinant TNF-α under the present condition. A standard curve was obtained by incubating known amounts of the recombinant TNF-α with the WEHI cells.

For CSCC[C@H](NC(=O)[C@H](CC(N)=O)NC(=O)[C@H](CCCNC(=N)N)NC(=O)[C@H](CCC(N)=O)NC(=O)[C@H](Cc1c[nH]c2ccccc12)NC(=O)[C@H](CCC(N)=O)NC(=O)[C@H](Cc1ccccc1)NC(=O)[C@H](CS)NC(=O)[C@H](CCCCN)NC(=O)[C@@H](NC(=O)[C@H](C)NC(=O)[C@H](CCC(=O)O)NC(=O)[C@@H]1CCCN1C(=O)[C@H](CCC(N)=O)NC(=O)[C@H](CO)NC(=O)[C@@H](NC(=O)[C@H](C)NC(=O)[C@H](CS)NC(=O)[C@H](Cc1c[nH]c2ccccc12)NC(=O)[C@H](CCC(N)=O)NC(=O)[C@@H](N)C(C)C)C(C)C)[C@@H](C)O)C(=O)N[C@@H](CCCNC(=N)N)C(=O)N[C@@H](CCCCN)C(=O)N[C@H](C(=O)N[C@@H](CCCNC(=N)N)C(=O)NCC(=O)N1CCC[C@H]1C(=O)O)C(C)C [LF-27], the “TNF-α secretion induced by Lipid A” value (agent 3 μM, endotoxin 10 ng/ml, control 2,386) was 3,182 +/− 412 pg/ml, the “TNF-α secretion induced by S. abortus LPS” value (agent 3 μM, endotoxin 10 ng/ml, control 3,969) was 3,985 +/− 497 pg/ml and the “TNF-α secretion induced by P. aer. LPS” value (agent 3 μM, endotoxin 10 ng/ml, control 4,813) was 4,633 +/− 603 pg/ml. For the same molecule, the “TNF-α secretion induced by E. coli LPS” value (agent 3 μM, endotoxin 10 ng/ml, control 4,928) was 4,912 +/− 588 pg/ml, the “TNF-α secretion induced by N. min. LPS” value (agent 3 μM, endotoxin 10 ng/ml, control 5,658) was 7,306 +/− 1008 pg/ml and the “effect on endotoxin-induced TNF-α secretion” value (equal molar concentration of LF-27 or 10% human serum) was “no effect”.
